Broadly, the inhibition is the change of the read-out against control, counted positive when it falls.

The species entered for one assay is Homo sapiens. Nature of the assay: Inhibition of His-tagged human group V human secretory PLA2 expressed in Escherichia coli BL21 cells at 0.091 mol fraction using PAPC/arachidonyl-1-14C PAPC as substrate by mixed micelle modified Dole assay.
Assay [1] concerns the target T1, Cytosolic phospholipase A2 (Homo sapiens) (UniProt P47712).
T1 sequence (whole entry): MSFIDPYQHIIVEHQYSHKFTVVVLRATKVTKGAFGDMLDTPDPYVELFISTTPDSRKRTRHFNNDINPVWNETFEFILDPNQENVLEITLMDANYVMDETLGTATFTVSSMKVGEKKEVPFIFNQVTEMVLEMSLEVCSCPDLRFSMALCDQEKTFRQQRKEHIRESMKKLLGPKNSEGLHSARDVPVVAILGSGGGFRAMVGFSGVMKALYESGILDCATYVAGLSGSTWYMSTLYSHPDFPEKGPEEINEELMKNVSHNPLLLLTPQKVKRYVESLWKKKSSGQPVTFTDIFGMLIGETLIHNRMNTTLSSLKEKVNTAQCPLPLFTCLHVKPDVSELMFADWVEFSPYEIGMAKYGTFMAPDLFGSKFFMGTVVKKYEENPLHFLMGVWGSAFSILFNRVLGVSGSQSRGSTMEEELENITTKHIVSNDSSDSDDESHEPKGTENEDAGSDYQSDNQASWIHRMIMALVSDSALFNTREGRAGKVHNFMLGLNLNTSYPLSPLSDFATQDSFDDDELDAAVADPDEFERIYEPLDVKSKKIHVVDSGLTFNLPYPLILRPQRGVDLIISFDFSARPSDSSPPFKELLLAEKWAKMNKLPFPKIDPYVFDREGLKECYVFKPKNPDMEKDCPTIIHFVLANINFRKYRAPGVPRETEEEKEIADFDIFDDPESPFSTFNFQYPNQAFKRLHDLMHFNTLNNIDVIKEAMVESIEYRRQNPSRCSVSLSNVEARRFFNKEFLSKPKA
As to the kind of experiment: Inhibition of C-terminal 6xHis-tagged human group IVA cytosolic PLA2 expressed in fall armyworm sf9 cells at 0.091 mol fraction using PAPC/arachidonyl-1-14C PAPC as substrate by mixed micelle modified Dole assay.

In assay [2] the target is T2, 85/88 kDa calcium-independent phospholipase A2 (Homo sapiens) (UniProt O60733).
T2 sequence (whole entry): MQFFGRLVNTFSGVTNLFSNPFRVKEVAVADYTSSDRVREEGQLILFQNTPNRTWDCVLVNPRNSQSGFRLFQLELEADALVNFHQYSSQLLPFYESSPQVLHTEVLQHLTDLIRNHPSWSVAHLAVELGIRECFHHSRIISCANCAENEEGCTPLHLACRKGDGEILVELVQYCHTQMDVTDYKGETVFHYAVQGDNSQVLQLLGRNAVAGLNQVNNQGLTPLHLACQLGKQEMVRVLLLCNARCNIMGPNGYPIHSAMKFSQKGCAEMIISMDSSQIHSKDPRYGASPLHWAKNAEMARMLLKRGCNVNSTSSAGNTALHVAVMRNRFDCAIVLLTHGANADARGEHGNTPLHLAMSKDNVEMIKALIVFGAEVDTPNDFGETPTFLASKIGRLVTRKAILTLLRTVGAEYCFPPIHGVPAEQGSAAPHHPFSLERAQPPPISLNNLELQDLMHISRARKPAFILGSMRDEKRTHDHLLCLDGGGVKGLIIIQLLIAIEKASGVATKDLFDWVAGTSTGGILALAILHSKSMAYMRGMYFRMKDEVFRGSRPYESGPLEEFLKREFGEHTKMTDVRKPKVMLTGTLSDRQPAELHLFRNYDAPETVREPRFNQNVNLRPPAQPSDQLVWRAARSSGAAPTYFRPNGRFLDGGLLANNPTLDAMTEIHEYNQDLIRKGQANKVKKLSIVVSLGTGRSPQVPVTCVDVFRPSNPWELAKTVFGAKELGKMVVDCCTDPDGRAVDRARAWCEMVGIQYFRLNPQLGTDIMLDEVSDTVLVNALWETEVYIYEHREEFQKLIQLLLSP
Nature of the assay: Inhibition of N-terminal 6xHis-tag human group VIA calcium-independent PLA2 expressed in fall armyworm sf9 cells using PAPC/arachidonyl-1-14C PAPC as substrate by mixed micelle modified Dole assay.

Assay [3] concerns the target T2, 85/88 kDa calcium-independent phospholipase A2 (Homo sapiens). As to the kind of experiment: Inhibition of N-terminal 6xHis-tag human group VIA calcium-independent PLA2 expressed in fall armyworm sf9 cells at 0.091 mol fraction using PAPC/arachidonyl-1-14C PAPC as substrate by mixed micelle modified Dole assay.
Assay [4] has the same target. Nature of the assay: Binding affinity to Group VIA calcium-independent PLA2 (unknown origin) (630 to 655 residues) assessed as change in average deuteration level preincubated for 30 mins followed by D2O addition measured after 10 to 10000 secs by DXMS analysis.
The target is the same in assay [5]. As to the kind of experiment: Binding affinity to Group VIA calcium-independent PLA2 (unknown origin) (542 to 562 residues) assessed as change in average deuteration level preincubated for 30 mins followed by D2O addition measured after 10 to 10000 secs by DXMS analysis.
For assay [6] the target is unchanged. As to the kind of experiment: Binding affinity to Group VIA calcium-independent PLA2 (unknown origin) (514 to 524 residues) assessed as change in average deuteration level preincubated for 30 mins followed by D2O addition measured after 10 to 10000 secs by DXMS analysis.
Assay [7] shares this target. Nature of the assay: Binding affinity to Group VIA calcium-independent PLA2 (unknown origin) (481 to 493 residues) assessed as change in average deuteration level preincubated for 30 mins followed by D2O addition measured after 10 to 10000 secs by DXMS analysis.
Assay [8] shares this target. Nature of the assay: Binding affinity to Group VIA calcium-independent PLA2 (unknown origin) (718 to 730 residues) assessed as change in average deuteration level preincubated for 30 mins followed by D2O addition measured after 10 to 10000 secs by DXMS analysis.
For assay [9] the target is unchanged. Nature of the assay: Competitive-reversible inhibition of N-terminal 6xHis-tag human group VIA calcium-independent PLA2 expressed in fall armyworm sf9 cells using PAPC/arachidonyl-1-14C PAPC as substrate by mixed micelle modified Dole assay.
For assay [10] the target is unchanged. As to the kind of experiment: Binding affinity to Group VIA calcium-independent PLA2 (unknown origin) (656 to 664 residues) assessed as change in average deuteration level preincubated for 30 mins followed by D2O addition measured after 10 to 10000 secs by DXMS analysis.
The target is the same in assay [11]. As to the kind of experiment: Binding affinity to Group VIA calcium-independent PLA2 (unknown origin) (770 to 778 residues) assessed as change in average deuteration level preincubated for 30 mins followed by D2O addition measured after 10 to 10000 secs by DXMS analysis.
Assay [12] concerns the target T1, Cytosolic phospholipase A2 (Homo sapiens). As to the kind of experiment: Inhibition of C-terminal 6xHis-tagged human group IVA cytosolic PLA2 expressed in fall armyworm sf9 cells using PAPC/arachidonyl-1-14C PAPC as substrate by mixed micelle modified Dole assay.

Take `O=C(CSc1ccc(Cl)cc1)C(F)(F)F`: the inhibition worked out at 23% in the assay filed under Homo sapiens, 82% in [1] and 95% in [3]. In [2], the XI50 (mole fraction) turned out to be 0.011. Besides, in assay [3], the pXI50 was 2.

Turning to `O=C(CSc1ccc([N+](=O)[O-])cc1)C(F)(F)F`, the results for the inhibition (in the assay filed under Homo sapiens; in [1]; in [3]) were 17%, 26% and 52%, respectively.

`Cc1ccc(SCC(=O)C(F)(F)F)cc1`: the inhibition in the assay listed under Homo sapiens came out at 18%; in [1], 61%; in assay [3] it was 95%. The XI50 (mole fraction) in assay [2] worked out at 0.009. Also, in assay [3], the pXI50 was found to be 2.1.

`CCCCCCCCSCC(=O)C(F)(F)F`: the Activity turned out to be 12% in assay [4]; 18% in assay [5]; 13% in assay [6]; 16% in [7]; 13% in [8]; 12% in assay [10]. In [11], the Activity stood at 20%. Besides, the values for the inhibition (in the assay filed under Homo sapiens; in assay [1]; in assay [3]) were 68%, 82% and 99%, respectively. Moreover, in assay [9], the XI50 (mole fraction) is 0.0002. Further, the pXI50 in assay [3] came to 3.7.

`CCCCCCS(=O)(=O)CC(O)(O)C(F)(F)F`: the inhibition in the assay filed under Homo sapiens was 0%; in [1], 14%; in assay [3] it was 71%.

`CCCCCCCCCCCSCC(=O)C(F)(F)F`: the results for the inhibition (in the assay filed under Homo sapiens; in [1]; in assay [3]) were 73%, 98% and 98%, respectively. Moreover, the XI50 (mole fraction) in [2] stood at 0.0007; in assay [12], 0.014. Also, in [3], the pXI50 turned out to be 3.2.

Consider `O=C(CSc1cccc(Cl)c1)C(F)(F)F`, for which the inhibition in the assay filed under Homo sapiens was 46%; in [1], 91%; in assay [3], 98%. Besides, in assay [2], the XI50 (mole fraction) is 0.011. Besides, in assay [3], the pXI50 was 2.

On to `O=C(CSc1ccc(Br)cc1)C(F)(F)F`, for which the inhibition in the assay listed under Homo sapiens was 35%; in [1] it was 82%; in assay [3], 97%. In addition, the XI50 (mole fraction) in assay [2] was determined as 0.0071. Also, in assay [3], the pXI50 was found to be 2.2.

With `CCCCCCS(=O)(=O)CC(O)C(F)(F)F` (stereo not given), the inhibition in the assay listed under Homo sapiens worked out at 16%; in assay [1], 5%; in [3], 15%.

As for `O=C(CSCCc1ccccc1)C(F)(F)F`, the inhibition in the assay filed under Homo sapiens stood at 61%; in [1], 92%; in [3], 100%. Also, the XI50 (mole fraction) in assay [2] came out at 0.00059. Besides, the pXI50 in assay [3] was 3.2.

Regarding `O=C(C[Se]c1ccccc1)C(F)(F)F`, the results for the inhibition (in the assay filed under Homo sapiens; in assay [1]; in assay [3]) were 44%, 18% and 46%, respectively.

As to `COc1ccc(SCC(=O)C(F)(F)F)cc1`, the inhibition in the assay filed under Homo sapiens turned out to be 16%; in [1], 70%; in assay [3] it was 93%. For the same compound, the XI50 (mole fraction) in assay [2] was found to be 0.011. Also, in assay [3], the pXI50 was 2.

As for `CCCCCCOCC(O)C(F)(F)F` (stereo not given), the inhibition in the assay listed under Homo sapiens is 35%; in assay [1], 58%; in assay [3], 43%.

On to `CCCCSCC(=O)C(F)(F)F`, for which the results for the inhibition (in the assay listed under Homo sapiens; in [1]; in assay [3]) were 14%, 46% and 91%, respectively. In addition, the XI50 (mole fraction) in assay [2] was determined as 0.07. Besides, the pXI50 in assay [3] was 1.2.

`CCCCCCCCCCCCS(=O)(=O)CC(O)C(F)(F)F` (stereo not given): the inhibition in the assay filed under Homo sapiens was found to be 80%; in assay [1], 2%; in assay [3] it was 32%.

Turning to `O=C(CSc1c(Cl)cccc1Cl)C(F)(F)F`, the inhibition worked out at 43% in the assay filed under Homo sapiens, 91% in assay [1] and 99% in assay [3]. The XI50 (mole fraction) in [2] was found to be 0.0049. Further, the pXI50 in assay [3] was found to be 2.3.

In the case of `CCCCCCCCS(=O)(=O)CC(O)C(F)(F)F` (stereo not given), the inhibition in the assay filed under Homo sapiens was 23%; in [1], 5%; in [3] it was 24%.

For the compound `O=C(CSc1ccccc1)C(F)(F)F`, the figures for the inhibition (in the assay filed under Homo sapiens; in [1]; in assay [3]) were 27%, 75% and 89%, respectively.

With `CCCCCCOCC(=O)C(F)(F)F`, the inhibition in the assay listed under Homo sapiens stood at 35%; in assay [1], 76%; in assay [3], 99%. In addition, in assay [2], the XI50 (mole fraction) turned out to be 0.006. The pXI50 in [3] was determined as 2.2.

Regarding `CCCCCCCCCCCCS(=O)(=O)CC(O)(O)C(F)(F)F`, the values for the inhibition (in the assay filed under Homo sapiens; in assay [1]; in assay [3]) were 44%, 34% and 52%, respectively.

On to `CCCCCCSCC(=O)C(F)(F)F`, for which the inhibition was found to be 33% in the assay listed under Homo sapiens, 77% in [1] and 99% in assay [3]. Further, the XI50 (mole fraction) in [2] stood at 0.00052. Besides, the pXI50 in assay [3] stood at 3.3.

In the case of `O=C(CSc1ccc(F)cc1)C(F)(F)F`, the inhibition came to 14% in the assay filed under Homo sapiens, 24% in [1] and 46% in assay [3].

As for `CCCCCCCCS(=O)(=O)CC(O)(O)C(F)(F)F`, the inhibition is 18% in the assay listed under Homo sapiens, 19% in assay [1] and 82% in [3].

Consider `O=C(c1ccc(C2CCCCC2)s1)C(F)(F)F`, for which the inhibition in the assay filed under Homo sapiens is 66%; in assay [1], 60%; in [3] it was 39%.

Consider `CCCCCCCCCCSCC(=O)C(F)(F)F`, for which the inhibition in the assay filed under Homo sapiens worked out at 78%; in assay [1], 100%; in [3], 99%. Moreover, the XI50 (mole fraction) was found to be 0.00041 in assay [2] and 0.008 in assay [12]. In assay [3], the pXI50 came to 3.4.

Take `CCCCCCCCCCCCSCC(=O)C(F)(F)F`: the inhibition in the assay listed under Homo sapiens stood at 87%; in assay [1] it was 83%; in assay [3] it was 97%. In addition, in assay [2], the XI50 (mole fraction) was 0.0043. Further, the pXI50 in assay [3] is 2.4.
